Patent US8623855B2, “Azetidinone compounds and medical use thereof” (Zhejiang Hisun Pharmaceutical Co., Ltd., priority 2009, dated 2014)
Read-outs that look alike come from different tables or passages of the source.

What was measured:
[1] = system: hypercholesterolemia golden hamster model; assay: In vivo pharmacodynamic screening in hypercholesterolemia model of golden hamster (plasma TC and LDL-C); conditions: for inhibition in vivo at 2 mg/kg / inhibition in vivo at 1 mg/kg: Mesocricetus auratus, po, 168 h; for inhibition in vivo at 2 mg/kg: Table 2; for LDL-C after administration / TC after administration / LDL after administration: 1 week, plasma
Description: 1. Establishment of Hypercholesterolemia Model of Golden Hamster:
The animals were subjected to acclimation feeding for 1 week with free feeding and drinking under a lighting condition of 10 h/14 h. On Day 8, the animals were raised with high fat feed (consisting of 0.5% cholesterol, 20% palm oil, 79.5% basal feed) for 1 week. Then, each animal was anesthetized by ether. After weighing, 0.5 ml blood was obtained from orbital vein, anticoagulated with heparin and centrifuged at 5000 rpm for 10 min. The plasma was collected and the levels of plasma TC (total cholesterol) and LDL-C (low density lipoprotein cholesterol) were determined by automatic biochemical analyzer. Animals with plasma TC of 9-15 mmol/L were selected as model animals (refer to the following reference for the method of animal modeling: Burrier, R. E., Smith, A. A., Mcgregor, D. G, Hoos, L. M., Zilli, D. L., Davis, H. R. The effect of acyl CoA: cholesterol acyltransferase inhibition on the uptake, esterification and secretion of cholesterol by the hamster small intestine. J. Pharm. Exp. Ther., 1995, 272, 156-163).
The animals were grouped according to TC and LDL-C levels and weight with 6 animals per group. Ezetimibe was used as positive control. The animals were intragastrically administered at a volume of 5 ml/kg for 1 week. Each animal was anesthetized by ether. After weighing, 0.5 ml blood was taken from orbital vein, anticoagulated with heparin, and centrifuged at 5000 rpm for 10 min. The plasma was collected and plasma TC (total cholesterol) and LDL-C (low density lipoprotein cholesterol) levels were determined by automatic biochemical analyzer to evaluate the efficacy of the compounds.

normal guinea pig = assay: Effect on blood lipid level of normal guinea pigs; assay type: in vivo; conditions: Table 13; 2.5 mg/kg
[2] = Table 11, baseline of group dosed 1 mg/kg

O=C1[C@H](CC[C@H](O)c2ccc(F)cc2)[C@@H](c2ccc(O)cc2)N1c1ccc(F)cc1 [Ezetimibe, reference compound]
inhibition in vivo at 2 mg/kg ([1]; read-out: Reducing LDL-C %): 77.6% | inhibition in vivo at 2 mg/kg ([1]; read-out: Reducing TC %): 57.4% | inhibition in vivo at 1 mg/kg ([1]; Table 4, 1 mg/kg, read-out: Reducing TC %): 58.8% | inhibition in vivo at 1 mg/kg ([1]; Table 6, 1 mg/kg, read-out: Reducing LDL-C %): 76% | inhibition in vivo at 1 mg/kg ([1]; Table 6, 1 mg/kg, read-out: Reducing TC %): 58.3% | inhibition in vivo at 1 mg/kg ([1]; Table 8, 1 mg/kg, read-out: Reducing LDL-C %): 64.2% | inhibition in vivo at 1 mg/kg ([1]; Table 8, 1 mg/kg, read-out: Reducing TC %): 48.1% | inhibition in vivo at 1 mg/kg ([1]; Table 10, 1 mg/kg, read-out: Reducing LDL-C %): 68.2% | inhibition in vivo at 1 mg/kg ([1]; Table 10, 1 mg/kg, read-out: Reducing TC %): 64.4% | inhibition in vivo at 1 mg/kg ([1]; Table 12, 1 mg/kg, read-out: Reducing LDL-C %): 60.8% | inhibition in vivo at 1 mg/kg ([1]; Table 12, 1 mg/kg, read-out: Reducing TC %): 58.5% | LDL-C after administration ([1]; Table 1, 2 mg/kg intragastric): 0.57 ± 0.34 mmol/L | TC after administration ([1]; Table 1, 2 mg/kg intragastric): 4.21 ± 0.68 mmol/L | LDL-C before administration ([1]; Table 1, baseline of group dosed 2 mg/kg): 2.55 ± 0.96 mmol/L | LDL after administration ([1]; Table 3, 1 mg/kg intragastric): 1.16 ± 0.44 mmol/L | TC after administration ([1]; Table 3, 1 mg/kg intragastric): 5.62 ± 0.48 mmol/L | Reducing LDL % ([1]; Table 4, 1 mg/kg): 36.0% | LDL after administration ([1]; Table 5, 1 mg/kg intragastric): 1.3 mmol/L | TC after administration ([1]; Table 5, 1 mg/kg intragastric): 4.51 mmol/L | LDL after administration ([1]; Table 7, 1 mg/kg intragastric): 1.62 mmol/L | TC after administration ([1]; Table 7, 1 mg/kg intragastric): 5.58 mmol/L | LDL after administration ([1]; Table 9, 1 mg/kg intragastric): 1.0 mmol/L | TC after administration ([1]; Table 9, 1 mg/kg intragastric): 5.45 mmol/L | LDL-C after administration ([1]; Table 11, 1 mg/kg intragastric): 1.13 | TC after administration ([1]; Table 11, 1 mg/kg intragastric): 5.29 | LDL-C before administration [1, 2]: 2.88 ± 0.79 | TC before administration [1, 2]: 12.74 ± 1.44 | HDL after administration (normal guinea pig): 0.41 mmol/L | LDL after administration (normal guinea pig): 0.99 mmol/L | TC after administration (normal guinea pig): 1.14 ± 0.24 mmol/L | TG after administration (normal guinea pig): 0.41 ± 0.12 mmol/L
